Data published in the supplement of paper PMC10307832.

Experiments:
Assay in all cases: relative viability (nuclei count vs DMSO), 5 days (fraction); higher = more cells survive
TPCA-1 + Crizotinib = compound: C1=CC(=CC=C1C2=CC(=C(S2)NC(=O)N)C(=O)N)F [TPCA-1] + C[C@@H](Oc1cc(-c2cnn(C3CCNCC3)c2)cnc1N)c1c(Cl)ccc(F)c1Cl [Crizotinib] (partner 1 µM)
Summary of the method: (§1)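 Medians of duplicate plates are given as relative viability. That measure is the nuclei count in treated wells divided by the count in vehicle wells. Counts were taken on 4× images of lung cancer cell lines in 1536-well plates, 5 days after pin-tool dosing the day after seeding with one drug alone or a fixed anchor-drug dose plus five library-drug doses (not always all listed) in √10 steps.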

Lestaurtinib + Alpelisib = compound: C[C@]12O[C@H](C[C@]1(O)CO)n1c3ccccc3c3c4c(c5c6ccccc6n2c5c31)CNC4=O [Lestaurtinib] + Cc1nc(NC(=O)N2CCC[C@H]2C(N)=O)sc1-c1ccnc(C(C)(C)C(F)(F)F)c1 [Alpelisib] (partner 2 µM)
Summary of the method: as §1

TPCA-1 + Alpelisib = compound: C1=CC(=CC=C1C2=CC(=C(S2)NC(=O)N)C(=O)N)F [TPCA-1] + Cc1nc(NC(=O)N2CCC[C@H]2C(N)=O)sc1-c1ccnc(C(C)(C)C(F)(F)F)c1 [Alpelisib] (partner 2 µM)
Summary of the method: as §1

[1] = compound: C1/C(=C\C2=CC=CS2)/C(=O)/C(=C/C3=CC=CS3)/C1 + Cc1nc(NC(=O)N2CCC[C@H]2C(N)=O)sc1-c1ccnc(C(C)(C)C(F)(F)F)c1 [Alpelisib] (partner 2 µM)
Summary of the method: as §1

| Cell Line | relative viability (TPCA-1 + Crizotinib; first compound 0.04 µM) | relative viability (TPCA-1 + Crizotinib; first compound 0.1265 µM) | relative viability (TPCA-1 + Crizotinib; first compound 0.4 µM) | relative viability (TPCA-1 + Crizotinib; first compound 1.265 µM) | relative viability (TPCA-1 + Crizotinib; first compound 4 µM) | relative viability (Lestaurtinib + Alpelisib; first compound 0.005 µM) | relative viability (Lestaurtinib + Alpelisib; first compound 0.01581 µM) | relative viability (Lestaurtinib + Alpelisib; first compound 0.05 µM) | relative viability (Lestaurtinib + Alpelisib; first compound 0.1581 µM) | relative viability (Lestaurtinib + Alpelisib; first compound 0.5 µM) | relative viability (TPCA-1 + Alpelisib; first compound 0.04 µM) | relative viability (TPCA-1 + Alpelisib; first compound 0.1265 µM) | relative viability (TPCA-1 + Alpelisib; first compound 0.4 µM) | relative viability (TPCA-1 + Alpelisib; first compound 1.265 µM) | relative viability (TPCA-1 + Alpelisib; first compound 4 µM) | relative viability ([1]; first compound 0.2 µM) | relative viability ([1]; first compound 0.6325 µM) | relative viability ([1]; first compound 2 µM) | relative viability ([1]; first compound 6.325 µM) | relative viability ([1]; first compound 20 µM) |
| --- | --- | --- | --- | --- | --- | --- | --- | --- | --- | --- | --- | --- | --- | --- | --- | --- | --- | --- | --- | --- |
| 201T | 1.04 | 0.998 | 1.08 | 1.02 | 1.03 | 1.04 | 1.03 | 1.02 | 0.933 | 0.693 | 1 | 0.998 | 1.01 | 1.08 | 0.983 | 1.01 | 0.964 | 1.08 | 0.934 | 1 |
| A549 | 0.898 | 0.748 | 0.773 | 0.522 | 0.331 | 0.802 | 0.638 | 0.518 | 0.263 | 0.0616 | 0.891 | 0.824 | 0.911 | 0.736 | 0.296 | 0.608 | 0.867 | 0.746 | 0.483 | 0.73 |
| A-427 | 0.856 | 0.817 | 1.09 | 0.879 | 0.625 | 1.14 | 1.16 | 0.952 | 0.571 | 0.4 | 1.13 | 1.04 | 1.14 | 1.06 | 1.06 | 1.12 | 1.06 | 1.18 | 1.04 | 1.01 |
| ABC-1 | 1.38 | 1.05 | 0.957 | 0.733 | 0.569 | 1.06 | 1.02 | 0.845 | 0.658 | 0.262 | 1.38 | 0.98 | 0.847 | 0.967 | 0.591 | 1.06 | 1.17 | 1.11 | 0.881 | 0.739 |
| BEN | 0.81 | 0.722 | 0.713 | 0.979 | 0.685 | 1.09 | 1.31 | 0.852 | 0.722 | 0.446 | 1.14 | 0.842 | 1.13 | 1.19 | 0.806 | 1.02 | 0.981 | 0.977 | 0.972 | 1.07 |
| CAL-12T | 0.597 | 0.588 | 0.675 | 0.717 | 0.381 | 1.12 | 1.3 | 1.19 | 0.502 | 0.385 | 1.22 | 0.907 | 0.93 | 1.1 | 0.707 | 1.33 | 1.15 | 0.95 | 0.856 | 1.13 |
| COR-L23 | 0.686 | 0.666 | 0.715 | 0.532 | 0.323 | 0.716 | 0.702 |  | 0.478 | 0.192 | 0.904 | 0.812 | 0.72 | 0.632 | 0.421 | 0.772 | 0.829 | 0.818 | 0.722 | 0.686 |
| COR-L 105 | 0.812 | 1.14 | 0.751 | 0.629 | 0.347 | 1.07 | 0.926 | 0.773 | 0.583 | 0.248 | 1.07 | 0.892 | 0.987 | 0.919 | 0.898 | 1.36 | 1.02 | 0.902 | 0.728 | 0.913 |
